Like-named read-outs stand apart in the source and are kept apart here. Each block holds one compound with its values, some of them ahead of it.
Key:
NLRP3 [1] = target: T1, NLRP3 (Homo sapiens, UniProt Q96P20); experiment: THP-1 cells pyroptosis assay; format: cell-based; parameters: Seed THP-1 cells (25,000 cells/well) containing 1.0 μg/ml LPS; host or cells: THP-1 cells, LPS-primed, nigericin-stimulated; conditions: LPS 1 μg/ml, nigericin 5 μM, resazurin read-out
Procedure, shortened: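 THP-1 cells (25,000/well) primed with 1 μg/ml LPS in serum-free RPMI, given compound (8-point half-log, 10 μM top, 0.1% DMSO) for 3 hrs, then nigericin 5 μM for 1 hr at 37° C. Viability of remaining cells read by resazurin (100 μM, 1–2 hrs) fluorescence; IC50 from 4-parameter fit.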

NLRP3 [2] = target: T1, NLRP3; experiment: Human whole blood IL1β release assay; format: cell-based; parameters: Plate out 80 μl of whole blood containing 1 μg/ml of LPS; from tissue; host or cells: human whole blood from healthy donors, LPS-primed, nigericin-stimulated; conditions: LPS 1 μg/ml, nigericin 10 μM, IL-1β AlphaLisa, read-out: HWB IC50
Protocol: For systemic delivery, the ability to inhibit NLRP3 when the compounds are present within the bloodstream is of great importance. For this reason, the NLRP3 inhibitory activity of a number of compounds in human whole blood was investigated in accordance with the following protocol.
Human whole blood in Li-heparin tubes was obtained from healthy donors from a volunteer donor panel. • 1. Plate out 80 μl of whole blood containing 1 μg/ml of LPS in 96-well, clear bottom cell culture plate (Corning #3585) • 2. Add […] compound (8 points half-log dilution with 10 μM top dose) or vehicle (DMSO 0.1% FAC) to the appropriate wells • 3. Incubate for 3 hrs at 37° C., 5% CO2 • 4. Add 10 μl Nigericin (Sigma #N7143) (10 μM FAC) to all wells • 5. Incubate for 1 hr at 37° C., 5 CO2 • 6. At the end of the incubation period, spin plates at 300×g for 5 mins to pellet cells and remove 20 μl of supernatant and add to 96-well v-bottom plates for […] analysis (note: these plates containing the supernatants can be stored at −80° C. to be analysed at a later date) • 7. IL-1β was measured according to the manufacturer protocol (Perkin Elmer-AlphaLisa IL-1 Kit AL220F-5000) • 8. IC50 data is fitted to anon-linear regression equation (log inhibitor vs response-variable slope 4-parameters)

[3] = PK protocol (intravenous and oral administration); format: in vivo, male Sprague Dawley rats; conditions: male, Sprague Dawley, plasma, rat, intravenous; for Vd: read-out: Vdss
Protocol: Pharmacokinetic parameters were determined in male Sprague Dawley rats (Charles River, UK, 250-350 g; or Vital River Laboratory Animal Technology Co Ltd, Beijing, China, 7-9 weeks old). Animals were individually housed during the study and maintained under a 12 h light/dark cycle. Animals had free access to food and water except that some orally dosed animals were food deprived overnight prior to the study. For intravenous administration, compounds were formulated as a solution in water or DMSO:PBS [10:90] in 2 mL/kg dosing volume and administered via tail vein. For oral administration, compounds were formulated as a solution in water or DMSO:water [10:90] in 5 mL/kg dosing volume and administered orally.
Serial blood samples (about 120-300 μL) were taken from each animal at each of 8 time-points post dose (0.083, 0.25, 0.5, 1, 2, 4, 8 and 24 h) or at each of 12 time-points post dose (0.03, 0.1, 0.17, 0.25, 0.5, 1, 2, 4, 6, 8, 12 and 24 h) or pre-dose and at each of 9 time-points post dose (0.25, 0.5, 1, 2, 4, 6, 8, 12 and 24 h). Samples were held on ice for no longer than 30 minutes before centrifugation (10,000 rpm (8,385 g) for 3 minutes; or 5,696 rpm (3,000 g) for 15 minutes) for plasma generation. Plasma was frozen on dry ice prior to bioanalysis. PK parameters were generated from LC-MS/MS data using Dotmatics or Phoenix WinNonlin 6.3 software.

T1 sequence (Q96P20 whole entry): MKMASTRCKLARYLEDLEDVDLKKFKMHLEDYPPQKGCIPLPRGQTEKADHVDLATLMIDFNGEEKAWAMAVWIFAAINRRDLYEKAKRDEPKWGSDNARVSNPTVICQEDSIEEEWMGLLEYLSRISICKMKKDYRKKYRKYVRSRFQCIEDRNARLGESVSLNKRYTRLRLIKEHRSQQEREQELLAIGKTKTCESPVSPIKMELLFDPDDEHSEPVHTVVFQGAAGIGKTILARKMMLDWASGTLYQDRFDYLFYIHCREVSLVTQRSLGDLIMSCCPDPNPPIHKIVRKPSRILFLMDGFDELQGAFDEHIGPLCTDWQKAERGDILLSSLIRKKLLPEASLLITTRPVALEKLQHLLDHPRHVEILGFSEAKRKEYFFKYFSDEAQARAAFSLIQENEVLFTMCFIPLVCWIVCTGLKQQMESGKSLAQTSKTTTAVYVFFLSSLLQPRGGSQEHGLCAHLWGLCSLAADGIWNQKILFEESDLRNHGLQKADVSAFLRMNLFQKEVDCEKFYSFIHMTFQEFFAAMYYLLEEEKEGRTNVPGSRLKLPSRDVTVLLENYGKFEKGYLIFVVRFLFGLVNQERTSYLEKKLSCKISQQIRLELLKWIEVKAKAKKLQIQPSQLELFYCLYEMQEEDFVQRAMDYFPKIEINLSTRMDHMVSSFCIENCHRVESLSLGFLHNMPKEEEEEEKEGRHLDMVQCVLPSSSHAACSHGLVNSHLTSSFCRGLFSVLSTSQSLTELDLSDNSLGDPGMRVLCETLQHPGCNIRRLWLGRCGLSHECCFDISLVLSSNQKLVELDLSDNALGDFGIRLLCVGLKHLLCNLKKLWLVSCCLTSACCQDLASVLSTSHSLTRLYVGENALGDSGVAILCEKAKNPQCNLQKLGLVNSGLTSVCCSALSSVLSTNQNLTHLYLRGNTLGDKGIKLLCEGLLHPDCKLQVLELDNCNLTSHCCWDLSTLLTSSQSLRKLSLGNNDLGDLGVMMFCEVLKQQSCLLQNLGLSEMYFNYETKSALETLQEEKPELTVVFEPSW

IC50 (NLRP3 [1]): 40 to 160 nM
IC50 (NLRP3 [2]): < 400 nM
AUC ([3]; dose 1.74 mg/kg): 8060 ng·h/mL
clearance ([3]; dose 1.74 mg/kg): 4.2 mL/min/kg
half-life ([3]; dose 1.74 mg/kg): 3.6 h
Vd ([3]; dose 1.74 mg/kg): 0.6 L/kg
Structure (SMILES): CC(O)C(C)n1ccc(S(=O)(=O)NC(=O)Nc2c3c(cc4c2CCC4)CCC3)n1 (racemic) [Example 26, N-((1,2,3,5,6,7-Hexahydro-s-indacen-4-yl)carbamoyl)-1-(3-hydroxybutan-2-yl)-1H-pyrazole-3-sulfonamide]

IC50 (NLRP3 [1]): 40 to 160 nM
IC50 (NLRP3 [2]): < 400 nM
AUC ([3]; dose 1 mg/kg): 1860 ng·h/mL
clearance ([3]; dose 1 mg/kg): 9 mL/min/kg
half-life ([3]; dose 1 mg/kg): 6.6 h
Vd ([3]; dose 1 mg/kg): 1.18 L/kg
Structure (SMILES): Cn1nc(S(=O)(=O)NC(=O)Nc2c3c(cc4c2CCC4)CCC3)cc1C1(O)COC1 [Example 51, N-((1,2,3,5,6,7-Hexahydro-s-indacen-4-yl)carbamoyl)-5-(3-hydroxyoxetan-3-yl)-1-methyl-1H-pyrazole-3-sulfonamide]

IC50 (NLRP3 [1]): < 40 nM
IC50 (NLRP3 [2]): < 400 nM
AUC ([3]; dose 1 mg/kg): 2960 ng·h/mL
clearance ([3]; dose 1 mg/kg): 5.6 mL/min/kg
half-life ([3]; dose 1 mg/kg): 0.7 h
Vd ([3]; dose 1 mg/kg): 0.24 L/kg
Structure (SMILES): COC1(c2cc(S(=O)(=O)NC(=O)Nc3c4c(cc5c3CCC5)CCC4)nn2C(C)C)COC1 [Example 42, N-((1,2,3,5,6,7-Hexahydro-s-indacen-4-yl)carbamoyl)-1-isopropyl-5-(3-methoxyoxetan-3-yl)-1H-pyrazole-3-sulfonamide]

IC50 (NLRP3 [1]): 40 to 160 nM
IC50 (NLRP3 [2]): < 400 nM
AUC ([3]; dose 1 mg/kg): 7380 ng·h/mL
clearance ([3]; dose 1 mg/kg): 2.3 mL/min/kg
half-life ([3]; dose 1 mg/kg): 2.9 h
Vd ([3]; dose 1 mg/kg): 0.36 L/kg
Structure (SMILES): C[C@H](O)Cn1ccc(S(=O)(=O)NC(=O)Nc2c3c(cc4c2CCC4)CCC3)n1 [Example 11, (S)—N-((1,2,3,5,6,7-Hexahydro-s-indacen-4-yl)carbamoyl)-1-(2-hydroxypropyl)-1H-pyrazole-3-sulfonamide]

IC50 (NLRP3 [1]): < 40 nM
IC50 (NLRP3 [2]): < 400 nM
AUC ([3]; dose 1 mg/kg): 948 ng·h/mL
clearance ([3]; dose 1 mg/kg): 17.6 mL/min/kg
half-life ([3]; dose 1 mg/kg): 2.9 h
Vd ([3]; dose 1 mg/kg): 1.74 L/kg
Structure (SMILES): COC1(c2cc(S(=O)(=O)NC(=O)Nc3c4c(cc5c3CCC5)CCC4)nn2C)CCOC1 (centres unmarked) [Example 48, N-((1,2,3,5,6,7-Hexahydro-s-indacen-4-yl)carbamoyl)-5-(3-methoxytetrahydrofuran-3-yl)-1-methyl-1H-pyrazole-3-sulfonamide]

IC50 (NLRP3 [1]): < 40 nM
IC50 (NLRP3 [2]): < 400 nM
AUC ([3]; dose 1.42 mg/kg): 2380 ng·h/mL
clearance ([3]; dose 1.42 mg/kg): 10 mL/min/kg
half-life ([3]; dose 1.42 mg/kg): 1.6 h
Vd ([3]; dose 1.42 mg/kg): 0.56 L/kg
Structure (SMILES): CCn1nc(S(=O)(=O)NC(=O)Nc2c3c(cc4c2CCC4)CCC3)cc1C1(O)COC1 [Example 46, 1-Ethyl-N-((1,2,3,5,6,7-hexahydro-s-indacen-4-yl)carbamoyl)-5-(3-hydroxyoxetan-3-yl)-1H-pyrazole-3-sulfonamide]

IC50 (NLRP3 [1]): 160 to 640 nM
IC50 (NLRP3 [2]): 1600 to 3200 nM
Structure (SMILES): CN(CCCO)C(=O)c1cc(S(=O)(=O)NC(=O)Nc2c3c(cc4c2CCC4)CCC3)nn1C [Example 64, 3-(N-((1,2,3,5,6,7-Hexahydro-s-indacen-4-yl)carbamoyl)sulfamoyl)-N-(3-hydroxypropyl)-N,1-dimethyl-1H-pyrazole-5-carboxamide]

IC50 (NLRP3 [1]): 160 to 640 nM
IC50 (NLRP3 [2]): 800 to 1600 nM
Structure (SMILES): Cn1nc(S(=O)(=O)NC(=O)Nc2c3c(cc4c2CCC4)CCC3)cc1C1(O)CCOCC1 [Example 55, N-((1,2,3,5,6,7-Hexahydro-s-indacen-4-yl)carbamoyl)-5-(4-hydroxytetrahydro-2H-pyran-4-yl)-1-methyl-1H-pyrazole-3-sulfonamide]

Second part, the compound before the results:

Structure (SMILES): O=C(Nc1c2c(cc3c1CCC3)CCC2)NS(=O)(=O)c1ccn(CC2CCCO2)n1 (centres unmarked) [Example 3, N-((1,2,3,5,6,7-Hexahydro-s-indacen-4-yl)carbamoyl)-1-((tetrahydrofuran-2-yl)methyl)-1H-pyrazole-3-sulfonamide]
IC50 (NLRP3 [1]): 40 to 160 nM
IC50 (NLRP3 [2]): 800 to 1600 nM
AUC ([3]; dose 1 mg/kg): 3680 ng·h/mL
clearance ([3]; dose 1 mg/kg): 4.5 mL/min/kg
half-life ([3]; dose 1 mg/kg): 6.7 h
Vd ([3]; dose 1 mg/kg): 1.57 L/kg

Structure (SMILES): COC1(c2cc(S(=O)(=O)NC(=O)Nc3c4c(cc5c3CCC5)CCC4)nn2C)COC1 [Example 53, N-((1,2,3,5,6,7-Hexahydro-s-indacen-4-yl)carbamoyl)-5-(3-methoxyoxetan-3-yl)-1-methyl-1H-pyrazole-3-sulfonamide]
IC50 (NLRP3 [1]): < 40 nM
IC50 (NLRP3 [2]): < 400 nM
AUC ([3]; dose 1 mg/kg): 1280 ng·h/mL
clearance ([3]; dose 1 mg/kg): 13.3 mL/min/kg
half-life ([3]; dose 1 mg/kg): 11.5 h
Vd ([3]; dose 1 mg/kg): 3.48 L/kg

Structure (SMILES): O=C(Nc1c2c(cc3c1CCC3)CCC2)NS(=O)(=O)c1ccn(C2(CO)CCC2)n1 [Example 24, N-((1,2,3,5,6,7-Hexahydro-s-indacen-4-yl)carbamoyl)-1-(1-(hydroxymethyl)cyclobutyl)-1H-pyrazole-3-sulfonamide]
IC50 (NLRP3 [1]): 40 to 160 nM
IC50 (NLRP3 [2]): < 400 nM
AUC ([3]; dose 1 mg/kg): 7030 ng·h/mL
clearance ([3]; dose 1 mg/kg): 2.4 mL/min/kg
half-life ([3]; dose 1 mg/kg): 3.5 h
Vd ([3]; dose 1 mg/kg): 0.37 L/kg

Structure (SMILES): COC1(c2cc(S(=O)(=O)NC(=O)Nc3c4c(cc5c3CCC5)CCC4)nn2C2CC2)COC1 [Example 38, 1-Cyclopropyl-N-((1,2,3,5,6,7-hexahydro-s-indacen-4-yl)carbamoyl)-5-(3-methoxyoxetan-3-yl)-1H-pyrazole-3-sulfonamide]
IC50 (NLRP3 [1]): < 40 nM
IC50 (NLRP3 [2]): < 400 nM
AUC ([3]; dose 1 mg/kg): 3880 ng·h/mL
clearance ([3]; dose 1 mg/kg): 4.6 mL/min/kg
half-life ([3]; dose 1 mg/kg): 1.1 h
Vd ([3]; dose 1 mg/kg): 0.35 L/kg

Structure (SMILES): O=C(Nc1c2c(cc3c1CCC3)CCC2)NS(=O)(=O)c1ccn(C2CCOC2)n1 (centres unmarked) [Example 1, N-((1,2,3,5,6,7-Hexahydro-s-indacen-4-yl)carbamoyl)-1-(tetrahydrofuran-3-yl)-1H-pyrazole-3-sulfonamide]
IC50 (NLRP3 [1]): 160 to 640 nM
IC50 (NLRP3 [2]): 800 to 1600 nM
AUC ([3]; dose 1 mg/kg): 8620 ng·h/mL
clearance ([3]; dose 1 mg/kg): 1.9 mL/min/kg
half-life ([3]; dose 1 mg/kg): 3.4 h
Vd ([3]; dose 1 mg/kg): 0.43 L/kg

Structure (SMILES): COCCN(CCOC)C(=O)c1cc(S(=O)(=O)NC(=O)Nc2c3c(cc4c2CCC4)CCC3)nn1C [Example 72, 3-(N-((1,2,3,5,6,7-Hexahydro-s-indacen-4-yl)carbamoyl)sulfamoyl)-N,N-bis(2-methoxyethyl)-1-methyl-1H-pyrazole-5-carboxamide]
IC50 (NLRP3 [1]): 40 to 160 nM
IC50 (NLRP3 [2]): 400 to 800 nM
AUC ([3]; dose 2.88 mg/kg): 330 ng·h/mL
clearance ([3]; dose 2.88 mg/kg): 149 mL/min/kg
half-life ([3]; dose 2.88 mg/kg): 0.2 h
Vd ([3]; dose 2.88 mg/kg): 1.84 L/kg

Structure (SMILES): CC(C)(O)Cn1ccc(S(=O)(=O)NC(=O)Nc2c(-c3ccnc(C#N)c3)ccc3c2CCC3)n1 [Example 93]
IC50 (NLRP3 [1]): < 40 nM
IC50 (NLRP3 [2]): < 400 nM

Structure (SMILES): COC1CN(CC(C)(C)n2ccc(S(=O)(=O)NC(=O)Nc3c4c(cc5c3CCC5)CCC4)n2)C1 [Example 107]
IC50 (NLRP3 [1]): 40 to 160 nM
IC50 (NLRP3 [2]): 800 to 1600 nM

Structure (SMILES): Cn1nc(S(=O)(=O)NC(=O)Nc2c3c(cc4c2CCC4)CCC3)cc1C1(F)COC1 [Example 49, 5-(3-Fluorooxetan-3-yl)-N-((1,2,3,5,6,7-hexahydro-s-indacen-4-yl)carbamoyl)-1-methyl-1H-pyrazole-3-sulfonamide]
IC50 (NLRP3 [1]): 160 to 640 nM
IC50 (NLRP3 [2]): 800 to 1600 nM

Structure (SMILES): O=C(Nc1c2c(cc3c1CCC3)CCC2)NS(=O)(=O)c1ccn(C2COC2)n1 [Example 12, N-((1,2,3,5,6,7-Hexahydro-s-indacen-4-yl)carbamoyl)-1-(oxetan-3-yl)-1H-pyrazole-3-sulfonamide]
IC50 (NLRP3 [1]): 160 to 640 nM
IC50 (NLRP3 [2]): 800 to 1600 nM

Structure (SMILES): CC[C@H](O)Cn1ccc(S(=O)(=O)NC(=O)Nc2c3c(cc4c2CCC4)CCC3)n1 [Example 21, (S)—N-((1,2,3,5,6,7-Hexahydro-s-indacen-4-yl)carbamoyl)-1-(2-hydroxybutyl)-1H-pyrazole-3-sulfonamide]
IC50 (NLRP3 [1]): 40 to 160 nM
IC50 (NLRP3 [2]): 800 to 1600 nM

Source: patent US12012392B2, “Sulfonamide carboxamide compounds” (Inflazome Limited, priority 2017, dated 2024)
